The subject of assay [1] is pancreas of mouse and rat, and the α cell line InR1G9. The conditions noted are these: cited from earlier work. From the text: However, this regulatory mechanism is impaired in individuals with type 1 diabetes. Compared to wild-type mice, V1b receptor k ...
Assay [2] deals with co-culture of INS-1E and αTC1-9 cells. The assay can be described thus: Glucagon secretion from co-cultured INS-1E and αTC1-9 cells. The conditions noted are these: 100 nM, 1 h, 16.8 mM glucose, both 2.5 × 10^4 cells/well (Fig. 3G). The format is cell-based, rat (INS-1E) and mouse (αTC1-9). As to the method: (§1) Cell culture and hormone secretion
(§2) The INS-1E cells were cultured in RPMI 1640 supplemented with 10% FBS, the αTC1-9 cells were cultured in low glucose DMEM supplemented with 10% FBS and the MIN6 cells were cultured in high glucose DMEM supplemented with 10% FBS. Cells were grown in 96-well plates at a density of 5 × 10^4 cells (INS-1E and αTC1-9) or 2 × 10^4 cells (MIN6) per well. After preincubation for 30 min at 37 °C in KRBB, the cells were incubated with either 0.1% DMSO or compounds for 1 h at 37 °C in KRBB containing either 16.8 mM or 2.8 mM glucose. […] For co-culturing of INS-1E and αTC1-9 cells, RPMI 1640 supplemented with 10% FBS was used, both cell densities were 2.5 × 10^4 cells per well in 96-well plates.

Assay [3] has the same test system. Kind of assay: Insulin secretion from co-cultured INS-1E and αTC1-9 cells. The format is cell-based, rat (INS-1E) and mouse (αTC1-9). The note with it: 1 h. As to the method: as §1, §2
Specific sequences of shRNAs (Table 1) targeting GCGR or GLP-1R mRNA were constructed into pLKO.1 puro lentiviral vector (Addgene, #8453). Lentiviral vectors and packaging vectors were transfected into HEK293T cells by FuGENE HD Transfection Reagent (Promega, #E2312) to produce virus particles. INS-1E cells were seeded onto 6-well plates at a density of 5 × 10^5 cells per well and incubated with viruses and 5 μg/mL polybrene for 48 h. Transfected INS-1E cells were collected for real-time qPCR and co-culture experiments.

Assay [4] has as its system αTC1-9 cells. Kind of assay: Glucagon secretion from αTC1-9 cells. The format is cell-based, mouse. The conditions noted are these: 100 nM, 1 h, 16.8 mM glucose, 5 × 10^4 cells/well; HTRF; 3 technical replicates (Fig. 3F). As to the method:
as §1, §2
(Time-resolved FRET reads energy transfer from a long-lived donor to a nearby acceptor.)

Assay [5] deals with isolated mouse islets. Kind of assay: Insulin secretion from isolated mouse islets. The format is cell-based, mouse (C57BL/6J). The conditions noted are these: for insulin secretion from isolated islets: 2 h.
Assay [6] concerns C57BL/6J mice. The assay can be described thus: Plasma insulin in OGTT. It counts as in vivo, mouse. The note with it: AVP 1 mg/kg i.p.; blood 15 min after glucose administration; ELISA; 4 mice/group (Fig. 5C). As to the method: (§3) Oral glucose tolerance test and insulin detection
(§4) For oral glucose tolerance test (OGTT), mice were fasted overnight and then given either 0.1% DMSO in normal saline (vehicle) or 1 mg/kg AVP and 10 mg/kg Exendin (9–39) (n = 8 per treatment group) via intraperitoneal injection. A glucose bolus was delivered (1.5 g/kg orally) 15 min later. Blood was collected from a tail nick at designated time points, and plasma glucose levels were determined with a glucose meter. To detect insulin level, blood was collected from the retro-orbital plexus of mice 15 min after glucose administration (n = 4 per treatment group) and detected with an ELISA kit for mouse insulin (Crystal Chem, #90080).
Background: In an ELISA, binding on a coated surface is turned into a signal by an enzyme label.

Assay [7] relates to MIN6 cells. Kind of assay: Insulin secretion from MIN6 cells. The format is cell-based, mouse. The note with it: 100 nM, 1 h, 37 °C, 16.8 mM glucose, 2 × 10^4 cells/well; HTRF; 3 technical replicates (Fig. 1F). As to the method:
as §1, §2

Assay [8] relates to C57BL/6J mice. Kind of assay: Oral glucose tolerance test (OGTT), blood glucose. It counts as in vivo, mouse. The note with it: AVP 1 mg/kg i.p., 15 min before 1.5 g/kg oral glucose; 8 mice/group (Fig. 5A, 5B). As to the method:
as §3, §4

Assay [9] deals with islet β cells. The note with it: cytokine-induced apoptosis; cited from earlier work. The text has this: (§5) AVP regulates the hypothalamic-pituitary-adrenal (HPA) axis, stimulating the release of corticotropin-releasing hormone (CRH) through V1bR activation, thereby promoting CRH-induced insulin secretion.
Assay [10] has as its system mouse and rat pancreas, and isolated mouse islets. The note with it: mouse and rat pancreas, and isolated mouse islets; cited from earlier work.
Text: as §5

For assay [11], the system named is INS-1E cells. Kind of assay: Insulin secretion from INS-1E cells. It counts as cell-based, rat. The conditions noted are these: 100 nM, 1 h, 37 °C, 16.8 mM glucose, 5 × 10^4 cells/well; HTRF; 3 technical replicates (Fig. 1E). As to the method:
as §1, §2

In assay [12] the test system is isolated mouse islets. Kind of assay: Glucagon secretion from isolated mouse islets. The format is cell-based, mouse (C57BL/6J). As to the method: Hormone secretion from isolated islets
Islets were isolated from anesthetized male C57BL/6J mice (8 wk old). 1 mg/mL Collagenase P (Roche, #11213873001) solution was injected into the pancreas via the bile duct, and the pancreas was digested at 37 °C for 15 min. The mixture was centrifuged at 800 rpm for 3 min to collect the precipitate, which was then washed three times with HBSS (5.4 mM KCl, 0.3 mM Na2HPO4, 0.4 mM KH2PO4, 4.2 mM NaHCO3, 1.3 mM CaCl2, 0.5 mM MgCl2, 0.6 mM MgSO4, 137 mM NaCl, 5.6 mM D-glucose, pH 7.4). Then, the precipitate was re-suspended in HBSS and filtered through a 70 μm filter to obtain islets. The detached islets were cultured overnight in RPMI 1640 supplemented with 10% fetal bovine serum (FBS). The islets were transferred to 48-well plates and starved with KRBB (118.5 mM NaCl, 2.54 mM CaCl2, 1.19 mM KH2PO4, 4.74 mM KCl, 25 mM NaHCO3, 1.19 mM MgSO4, 10 mM HEPES, pH 7.4) containing 0.5% BSA for 60 min. Subsequently, the islets were incubated with 0.1% dimethyl sulfoxide (DMSO) or compounds for a duration of 2 h at 37 °C in 1 mL KRBB containing 16.8 mM or 2.8 mM glucose. Supernatants were collected, and the insulin concentrations were measured using HTRF Insulin kit (Cisbio, #62INSPEC) and an Envision Plate Reader (PerkinElmer).

“Also recorded” adds a separate entry of the source. Bridge positions count the residues as written; N and C are the ends. Ends that are not written are not given here.

On to “Arginine vasopressin (CYFQNCPRG-NH2; disulfide 1-6; ends not checked; UniProt P01185 20-28, looked up) [AVP, neuropeptide composed of nine amino acids]”, for which the glucagon secretion entry in [1] is recorded as “stimulate glucagon secretion”. Further, in [2], the “glucagon secretion from co-culture” value is “induce secretion of glucagon and insulin in high-glucose condition”. Further, the “insulin secretion from co-culture” value in assay [3] (100 nM, 16.8 mM glucose, both 2.5 × 10^4 cells/well (Fig. 3H)) is “induce secretion of glucagon and insulin in high-glucose condition”. Moreover, the “AVP-induced insulin secretion from co-culture after Gcgr knockdown” value in assay [3] (INS-1E infected with shRNA-Gcgr, AVP (1 nM), 16.8 mM glucose (Fig. 4K)) is recorded as “no significant effect”. The “AVP-induced insulin secretion from co-culture after Glp1r knockdown” value in assay [3] (INS-1E infected with shRNA-Glp1r, AVP (1 nM), 16.8 mM glucose (Fig. 4L)) is listed as “significantly attenuated AVP-induced insulin secretion”. The “glucagon secretion from αTC1-9 cells” value in [4] was “could induce glucagon release from αTC1-9 cells”. The “insulin secretion from isolated islets” value in assay [5] (100 nM, AVP compared with GLP-1, 3 technical replicates (Fig. 1D)) is “stimulated similar level of glucose-dependent insulin secretion from freshly isolated islets as GLP-1”; in [5] (various concentrations of AVP, 37 °C, 10 islets/well, 16.8 mM glucose KRBB, HTRF, mean ± SEM, 3 technical replicates (Fig. 1A)), “induced insulin secretion in a dose-dependent manner in high glucose condition”. Further, the “insulin secretion from isolated islets, glucose dependence” value in [5] (100 nM, low (2.8 mM) and high (16.8 mM) glucose (Fig. 3D, 3E)) is on record as “only induced insulin secretion from the islets in high-glucose medium”. Also, the “plasma insulin in OGTT” value in [6] is on record as “significantly stimulated the release of insulin”. Also, in assay [7], the “insulin secretion from MIN6 cells” value was “failed to induce insulin release”. Besides, the “blood glucose levels during OGTT” value in assay [8] is listed as “significantly lowered blood glucose levels during the OGTT”. Also, the “protection of islet β cells” value in [9] is reported as “confer protection on islet β cells against cytokine-induced apoptosis”. Further, the insulin secretion result in assay [10] was “enhance insulin secretion”. Moreover, the “insulin secretion from INS-1E cells” value in assay [11] is recorded as “failed to induce insulin release; also recorded: could not directly induce insulin secretion from INS-1E cells”. In addition, the “glucagon secretion from isolated islets, glucose dependence” value in assay [12] (AVP (100 nM), low (2.8 mM) and high (16.8 mM) glucose (Fig. 3C)) is “induced glucagon secretion from the isolated islets in low- and high-glucose conditions”. Moreover, the “glucagon secretion from isolated islets” value in [12] (various concentrations of AVP, 2 h, 16.8 mM glucose, 10 islets/well, 3 technical replicates (Fig. 3A)) was “induced dose-dependent secretion of glucagon”.

These data come from PMC11365140 (Cell & Bioscience, 2024).
